Where two headings read alike, the source gives them in different places.
Conditions: storage at 4° C.
[1] = per 100 mL: EDTA-Na2 0 mg, PG 5% w/v
[2] = per 100 mL: EDTA-Na2 0 mg, PG 10% w/v
[3] = per 100 mL: EDTA-Na2 0 mg, PG 20% w/v
[4] = per 100 mL: EDTA-Na2 100 mg, PG 5% w/v
[5] = per 100 mL: EDTA-Na2 100 mg, PG 10% w/v
[6] = per 100 mL: EDTA-Na2 100 mg, PG 20% w/v

C=CCN1CC[C@]23c4c5ccc(O)c4O[C@H]2C(=O)CC[C@@]3(O)[C@H]1C5 [Naloxone]
Observed naloxone precipitation 24 days [1]: No
Observed naloxone precipitation 24 days [2]: No
Observed naloxone precipitation 24 days [3]: No
Observed naloxone precipitation 24 days [4]: No
Observed naloxone precipitation 24 days [5]: No
Observed naloxone precipitation 24 days [6]: No and Slight
Observed naloxone precipitation 35 days [1]: No
Observed naloxone precipitation 35 days [2]: No
Observed naloxone precipitation 35 days [3]: No
Observed naloxone precipitation 35 days [4]: No
Observed naloxone precipitation 35 days [5]: No
Observed naloxone precipitation 35 days [6]: No and Yes
Observed naloxone precipitation 53 days [1]: No
Observed naloxone precipitation 53 days [2]: No
Observed naloxone precipitation 53 days [3]: No
Observed naloxone precipitation 53 days [4]: No
Observed naloxone precipitation 53 days [5]: No and Slight
Observed naloxone precipitation 53 days [6]: No and Yes

Reference: patent US20200352934A1, “LOW-TEMPERATURE STABLE OPIOID ANTAGONIST SOLUTIONS” (priority 2017, published 2020)
